Measurements: ChEMBL document CHEMBL1129851, “Synthesis and structural optimization of 7-(3,3-disubstituted-1-pyrrolidinyl)-1-cyclopropyl-6-fluoro-1,4-dihydro-8-methoxy-4-oxo-3-quinolinecarboxylic acids as antibacterial agents” (1997)
≈ marks a conversion by molar mass, not a printed value.

What was measured:
Type in all cases: functional
[1] = system: Enterococcus faecalis; experiment: Minimum inhibitory concentration in vitro against Enterococcus faecalis LS-101
[2] = system: Escherichia coli; experiment: Minimum inhibitory concentration in vitro against Escherichia coli NIHJ JC-2
[3] = system: Staphylococcus aureus; experiment: Minimum inhibitory concentration vitro against Staphylococcus aureus No.88
[4] = system: Streptococcus pneumoniae; experiment: Minimum inhibitory concentration in vitro against Streptococcus pneumoniae Type III
[5] = system: Staphylococcus aureus; experiment: Minimum inhibitory concentration in vitro against Staphylococcus aureus FDA 209P

| Structure (SMILES) | MIC [1] [µg/mL] | MIC [2] [µg/mL] | MIC [3] [µg/mL] | MIC [4] [µg/mL] | MIC [5] [µg/mL] |
| --- | --- | --- | --- | --- | --- |
| CC1COc2c(N3CCN(C)CC3)c(F)cc3c(=O)c(C(=O)O)cn1c23 (stereo not drawn) [OFLOXACIN] | 0.39 (≈ 1.08 µM) | 0.05 (≈ 0.138 µM) | 50 (≈ 138 µM) | 0.78 (≈ 2.16 µM) | 0.2 (≈ 0.553 µM) |
| COc1c(N2CCC(CF)(CN(C)C)C2)c(F)cc2c(=O)c(C(=O)O)cn(C3CC3)c12 (stereo not drawn) | 0.2 (≈ 0.459 µM) | 0.39 (≈ 0.896 µM) | 6.25 (≈ 14.4 µM) | 0.2 (≈ 0.459 µM) | 0.1 (≈ 0.23 µM) |
| NCC1CN(c2cc3c(cc2F)c(=O)c(C(=O)O)cn3C2CC2)CCO1 (stereo not drawn) | – | 0.39 (≈ 1.08 µM) | – | 0.39 (≈ 1.08 µM) | 0.2 (≈ 0.553 µM) |
| CNCC1(CF)CCN(c2c(F)cc3c(=O)c(C(=O)O)cn(C4CC4)c3c2OC)C1 (stereo not drawn) | 0.05 (≈ 0.119 µM) | 0.1 (≈ 0.237 µM) | 1.56 (≈ 3.7 µM) | 0.2 (≈ 0.475 µM) | 0.025 (≈ 0.0593 µM) |
| COc1c(N2CCC(C)(CN)C2)c(F)cc2c(=O)c(C(=O)O)cn(C3CC3)c12 (stereo not drawn) | 0.05 (≈ 0.128 µM) | 0.1 (≈ 0.257 µM) | 1.56 (≈ 4.01 µM) | 0.05 (≈ 0.128 µM) | 0.012 (≈ 0.0308 µM) |
| COc1c(N2CCC(CN)(CO)C2)c(F)cc2c(=O)c(C(=O)O)cn(C3CC3)c12 (stereo not drawn) | 0.2 (≈ 0.493 µM) | 0.78 (≈ 1.92 µM) | 50 (≈ 123 µM) | 0.39 (≈ 0.962 µM) | 0.1 (≈ 0.247 µM) |
| COc1c(N2CC[C@](CN)(CF)C2)c(F)cc2c(=O)c(C(=O)O)cn(C3CC3)c12 | 0.05 (≈ 0.123 µM) | 0.05 (≈ 0.123 µM) | 3.13 (≈ 7.68 µM) | 0.05 (≈ 0.123 µM) | 0.012 (≈ 0.0295 µM) |
| NCC1CN(c2c(F)cc3c(=O)c(C(=O)O)cn(C4CC4)c3c2F)CCO1 (stereo not drawn) | – | 0.1 (≈ 0.264 µM) | – | 0.1 (≈ 0.264 µM) | 0.025 (≈ 0.0659 µM) |
| O=C(O)c1cn(C2CC2)c2cc(N3CCNCC3)c(F)cc2c1=O [CIPROFLOXACIN] | 0.2 (≈ 0.604 µM) | – | > 100 | 0.39 (≈ 1.18 µM) | 0.2 (≈ 0.604 µM) |
| NC1CCN(c2nc3c(cc2F)c(=O)c(C(=O)O)cn3-c2ccc(F)cc2F)C1 (stereo not drawn) [TOSUFLOXACIN] | 0.05 (≈ 0.124 µM) | 0.025 (≈ 0.0618 µM) | > 25 | 0.1 (≈ 0.247 µM) | 0.025 (≈ 0.0618 µM) |

More lines, in order of falling MIC [2], values ahead:

| MIC [1] [µg/mL] | MIC [2] [µg/mL] | MIC [3] [µg/mL] | MIC [4] [µg/mL] | MIC [5] [µg/mL] | Structure (SMILES) |
| --- | --- | --- | --- | --- | --- |
| 0.2 (≈ 0.511 µM) | 0.39 (≈ 0.996 µM) | 50 (≈ 128 µM) | 0.2 (≈ 0.511 µM) | 0.1 (≈ 0.255 µM) | COc1c(N2CCC(O)(CN)C2)c(F)cc2c(=O)c(C(=O)O)cn(C3CC3)c12 (stereo not drawn) |
| 0.05 (≈ 0.128 µM) | 0.2 (≈ 0.511 µM) | 6.25 (≈ 16 µM) | 0.2 (≈ 0.511 µM) | 0.025 (≈ 0.0639 µM) | COc1c(N2CCOC(CN)C2)c(F)cc2c(=O)c(C(=O)O)cn(C3CC3)c12 (stereo not drawn) |
| – | 0.1 (≈ 0.253 µM) | – | 0.1 (≈ 0.253 µM) | 0.012 (≈ 0.0303 µM) | NCC1CN(c2c(F)cc3c(=O)c(C(=O)O)cn(C4CC4)c3c2Cl)CCO1 (stereo not drawn) |
| 0.05 (≈ 0.123 µM) | 0.05 (≈ 0.123 µM) | 0.78 (≈ 1.91 µM) | 0.05 (≈ 0.123 µM) | 0.012 (≈ 0.0295 µM) | COc1c(N2CC[C@@](CN)(CF)C2)c(F)cc2c(=O)c(C(=O)O)cn(C3CC3)c12 |
| 0.05 (≈ 0.123 µM) | 0.05 (≈ 0.123 µM) | 1.56 (≈ 3.83 µM) | 0.05 (≈ 0.123 µM) | 0.012 (≈ 0.0295 µM) | COc1c(N2CCC(CN)(CF)C2)c(F)cc2c(=O)c(C(=O)O)cn(C3CC3)c12 (stereo not drawn) |
| 0.1 (≈ 0.255 µM) | 0.025 (≈ 0.0637 µM) | 12.5 (≈ 31.9 µM) | 0.1 (≈ 0.255 µM) | 0.05 (≈ 0.127 µM) | C[C@@H]1CN(c2c(F)c(N)c3c(=O)c(C(=O)O)cn(C4CC4)c3c2F)C[C@H](C)N1 [SPARFLOXACIN] |
